The mass density is the mass of a sample divided by its volume.

The values below come from the NIST ThermoML archive (doi:10.1021/acs.jced.6b00803).

± gives the expanded uncertainty stated by the source.

The conditions of this data set: 298.15 K; 101.33 kPa; Liquid; Vibrating tube method.

`CCCCCCCCCCCC` [dodecane]: the mass density is recorded as 745.508 ± 3 kg/m3.

Consider `CC(=O)OCc1ccccc1` [benzyl ethanoate], for which the mass density is given as 1051.1 ± 4.2 kg/m3.

As for `CC(=O)CCc1ccccc1` [4-phenyl-2-butanone], the mass density amounted to 984.742 ± 4 kg/m3.

Take `CCCCCCCCCCCCCC` [tetradecane]: the mass density came to 759.275 ± 3 kg/m3.

For the compound `CCCCCCCCCCCCCCCC` [hexadecane], the mass density stood at 770.221 ± 3.1 kg/m3.
